We go through one compound from patent US20150157588A1, “Pharmaceutical Composition Comprising Amino-Phenyl-Acetic Acid Octadec-(Z)-9-enyl Ester and Use Thereof for Treating Tumors” (Yeda Research and Development Co., Ltd., priority 2012, published 2015).

Experiment [1] relates to freshly isolated mouse B cells. In words: Spontaneous apoptosis by hypo-diploid nuclei PI staining, primary B cells. The format is cell-based. The settings on record: 1 or 100 μg/ml in ethanol solution. How it is done:
Apoptosis was measured by FACS analysis with a hypo-diploid nuclei propidium iodide (PI) staining of freshly isolated mouse B cells treated with amino-phenyl-acetic acid octadec-(Z)-9-enyl ester in ethanol solution. FIGS. 5A-5C: L-12 cells treated with 0, 1 or 100 μg/ml of amino-phenyl-acetic acid octadec-(Z)-9-enyl ester, respectively; FIGS. 5D-5F: L-12 cells treated with 0, 1 or 100 μg/ml of the control reagent 4-methyl-piperazino-acetic acid ethyl ester, respectively; and FIGS. 5G-5I: L-12 cells treated with an ethanol volume corresponding to 0, 1 or to 100 μg/ml of amino-phenyl-acetic acid octadec-(Z)-9-enyl ester in ethanol solution, respectively.
(§1) B or T-cell apoptosis was detected by flow cytometry. […] The cells were then subjected to flow cytometric analysis; for each sample 10,000 were collected and cell-cycle distribution was analyzed according to relative DNA content (PI staining). […] The cells were then collected, stained by APO-DIRECT TUNNEL kit (Phnxflow, CITY, Calif., USA); mitochondrial potential was measured by DePsipher (R&D Systems, Minneapolis, Minn.) according to the manufacturer's procedure. Intracellular caspase activity was measured by Apostat kit (R&D Systems), according to the manufacturer's procedure. The cells were analyzed by Flow cytometry using FACSort (Becton Dickinson) and CellQuest software (Becton Dickinson). […]

The subject of experiment [2] is p53 expressing L-12 mouse B cell line. In words: Apoptosis by hypo-diploid nuclei PI staining, transformed B cell line. The format is cell-based. The settings on record: 10 or 100 μg per ml in 5% ethanol solution, 48 h. The procedure: Apoptosis was measured by FACS analysis with a hypo-diploid nuclei propidium iodide (PI) staining of an amino-phenyl-acetic acid octadec-(Z)-9-enyl ester treated p53 expressing L-12 mouse B cell line. FIGS. 4A-4C: L-12 cells treated with 0, 10 or 100 μg/ml of amino-phenyl-acetic acid octadec-(Z)-9-enyl ester in ethanol solution, respectively; FIGS. 4D-4F: L-12 cells treated with 0, 10 or 100 μg/ml of the control reagent 4-methyl-piperazino-acetic acid ethyl ester in ethanol solution, respectively; and FIGS. 4G-4I: L-12 cells treated with an ethanol volume corresponding to 0, 10 or 100 μg/ml of amino-phenyl-acetic acid octadec-(Z)-9-enyl ester, respectively. FL2-A is the measure of fluorescence. […]
as §1

As for `CCOC(=O)CN1CCN(C)CC1` [4-methyl-piperazino-acetic acid ethyl ester, reference compound], in experiment [1], the “spontaneous apoptosis / cell-cycle of primary B cells” value was “had no effect”. In addition, the “apoptosis / cell cycle (cells in sub-GO state)” value in experiment [2] is listed as “had no effect”.
